Measurements as given in ChEMBL document CHEMBL3525973, “Quantitative prediction of human intestinal glucuronidation effects on intestinal availability of UDP-glucuronosyltransferase substrates using in vitro data” (Drug Metab Dispos, 2012).

Assays:
[1] = Unbound fraction during UGT-mediated glucuronidation in human intestinal microsomes
[2] = Intrinsic clearance in human intestinal microsomes assessed UGT-mediated glucuronidation clearance
[3] = Unbound intrinsic clearance in human intestinal microsomes assessed UGT-mediated glucuronidation clearance
[4] = Intrinsic clearance in human intestinal microsomes assessed CYP450-mediated glucuronidation clearance; details: microsomes
[5] = Unbound intrinsic clearance in human intestinal microsomes assessed CYP450-mediated glucuronidation clearance
[6] = molecular target: T1, UDP-glucuronosyltransferase 2B7 (Homo sapiens, UniProt P16662); experiment: Activity of human UGT2B7 expressed in insect cells assessed as reduction in compound level after 30 mins; assay type: ADME; details: 0.5 h
T1 sequence (P16662 whole entry): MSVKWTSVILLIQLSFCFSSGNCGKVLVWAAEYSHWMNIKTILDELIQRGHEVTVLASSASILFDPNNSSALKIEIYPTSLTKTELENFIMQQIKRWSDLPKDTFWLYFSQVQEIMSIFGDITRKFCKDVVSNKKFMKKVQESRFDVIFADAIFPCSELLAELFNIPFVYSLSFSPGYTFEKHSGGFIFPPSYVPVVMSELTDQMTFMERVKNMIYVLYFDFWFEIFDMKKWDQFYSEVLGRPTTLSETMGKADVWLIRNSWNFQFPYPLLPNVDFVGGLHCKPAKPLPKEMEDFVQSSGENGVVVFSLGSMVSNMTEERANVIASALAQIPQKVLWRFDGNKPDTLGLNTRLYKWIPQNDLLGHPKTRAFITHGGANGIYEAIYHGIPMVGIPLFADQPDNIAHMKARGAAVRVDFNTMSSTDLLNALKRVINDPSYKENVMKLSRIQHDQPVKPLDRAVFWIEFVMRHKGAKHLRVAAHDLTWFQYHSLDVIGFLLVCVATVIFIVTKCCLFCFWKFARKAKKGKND

[7] = Bioavailability in human; assay type: ADME, organism-based; details: in vivo
[8] = Apparent permeability by PAMPA method
in vitro = details: human, blood and plasma
Description: Ratio of drug level in blood to plasma in human

[9] = molecular target: T2, UDP-glucuronosyltransferase 1A1 (Homo sapiens, UniProt P22309); experiment: Activity of human UGT1A1 expressed in insect cells assessed as reduction in compound level after 30 mins; assay type: ADME; details: 0.5 h
T2 sequence (P22309 whole entry): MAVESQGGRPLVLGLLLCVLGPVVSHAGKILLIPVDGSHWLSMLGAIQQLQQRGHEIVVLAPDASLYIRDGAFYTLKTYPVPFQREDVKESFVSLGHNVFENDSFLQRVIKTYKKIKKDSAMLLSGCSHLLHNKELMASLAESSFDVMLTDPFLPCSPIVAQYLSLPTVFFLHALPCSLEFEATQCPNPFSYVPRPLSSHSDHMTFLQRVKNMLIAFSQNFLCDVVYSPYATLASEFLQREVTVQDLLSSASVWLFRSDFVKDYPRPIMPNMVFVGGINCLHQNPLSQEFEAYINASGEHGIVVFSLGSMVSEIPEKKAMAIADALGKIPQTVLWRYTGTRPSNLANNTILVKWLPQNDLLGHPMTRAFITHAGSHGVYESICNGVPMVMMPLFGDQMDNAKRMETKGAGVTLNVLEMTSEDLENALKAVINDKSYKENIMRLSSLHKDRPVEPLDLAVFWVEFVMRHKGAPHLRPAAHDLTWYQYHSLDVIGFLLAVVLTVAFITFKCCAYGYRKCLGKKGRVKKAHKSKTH

[10] = molecular target: T3, UDP-glucuronosyltransferase 1A7 (Homo sapiens, UniProt Q9HAW7); experiment: Activity of human UGT1A7 expressed in insect cells assessed as reduction in compound level after 30 mins; assay type: ADME; details: 0.5 h
T3 sequence (Q9HAW7 whole entry): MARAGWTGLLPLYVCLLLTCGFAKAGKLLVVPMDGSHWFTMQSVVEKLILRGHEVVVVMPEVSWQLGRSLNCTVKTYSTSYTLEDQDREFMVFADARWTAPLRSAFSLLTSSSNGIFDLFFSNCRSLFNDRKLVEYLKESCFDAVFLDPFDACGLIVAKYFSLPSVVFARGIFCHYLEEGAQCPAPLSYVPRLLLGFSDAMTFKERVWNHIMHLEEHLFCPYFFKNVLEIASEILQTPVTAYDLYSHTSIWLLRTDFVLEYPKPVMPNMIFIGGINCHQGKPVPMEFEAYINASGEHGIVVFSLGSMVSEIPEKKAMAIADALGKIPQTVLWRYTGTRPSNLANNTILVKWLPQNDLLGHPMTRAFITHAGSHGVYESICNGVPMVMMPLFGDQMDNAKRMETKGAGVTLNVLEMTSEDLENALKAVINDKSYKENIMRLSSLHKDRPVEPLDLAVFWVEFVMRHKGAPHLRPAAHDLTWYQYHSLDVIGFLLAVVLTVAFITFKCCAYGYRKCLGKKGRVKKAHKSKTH

[11] = molecular target: T4, UDP-glucuronosyltransferase 1A9 (Homo sapiens, UniProt O60656); experiment: Activity of human UGT1A9 expressed in insect cells assessed as reduction in compound level after 30 mins; assay type: ADME; details: 0.5 h
T4 sequence (O60656 whole entry): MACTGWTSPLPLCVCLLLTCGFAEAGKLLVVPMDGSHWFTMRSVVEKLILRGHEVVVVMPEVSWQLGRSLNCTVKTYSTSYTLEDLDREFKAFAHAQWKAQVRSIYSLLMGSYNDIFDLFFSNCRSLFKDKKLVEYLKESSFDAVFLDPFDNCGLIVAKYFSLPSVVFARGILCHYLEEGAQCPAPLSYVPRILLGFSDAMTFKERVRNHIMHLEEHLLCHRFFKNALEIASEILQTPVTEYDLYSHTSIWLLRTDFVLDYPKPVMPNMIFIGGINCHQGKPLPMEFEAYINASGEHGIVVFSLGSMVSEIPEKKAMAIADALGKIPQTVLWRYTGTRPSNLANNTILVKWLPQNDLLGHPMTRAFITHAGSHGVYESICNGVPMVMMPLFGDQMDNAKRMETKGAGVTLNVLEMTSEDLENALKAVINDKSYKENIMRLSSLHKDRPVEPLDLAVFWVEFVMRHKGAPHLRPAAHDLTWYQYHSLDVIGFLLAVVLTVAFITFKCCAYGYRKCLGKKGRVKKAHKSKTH

[12] = molecular target: T5, UDP-glucuronosyltransferase 2B15 (Homo sapiens, UniProt P54855); experiment: Activity of human UGT2B15 expressed in insect cells assessed as reduction in compound level after 30 mins; assay type: ADME; details: 0.5 h
T5 sequence (P54855 whole entry): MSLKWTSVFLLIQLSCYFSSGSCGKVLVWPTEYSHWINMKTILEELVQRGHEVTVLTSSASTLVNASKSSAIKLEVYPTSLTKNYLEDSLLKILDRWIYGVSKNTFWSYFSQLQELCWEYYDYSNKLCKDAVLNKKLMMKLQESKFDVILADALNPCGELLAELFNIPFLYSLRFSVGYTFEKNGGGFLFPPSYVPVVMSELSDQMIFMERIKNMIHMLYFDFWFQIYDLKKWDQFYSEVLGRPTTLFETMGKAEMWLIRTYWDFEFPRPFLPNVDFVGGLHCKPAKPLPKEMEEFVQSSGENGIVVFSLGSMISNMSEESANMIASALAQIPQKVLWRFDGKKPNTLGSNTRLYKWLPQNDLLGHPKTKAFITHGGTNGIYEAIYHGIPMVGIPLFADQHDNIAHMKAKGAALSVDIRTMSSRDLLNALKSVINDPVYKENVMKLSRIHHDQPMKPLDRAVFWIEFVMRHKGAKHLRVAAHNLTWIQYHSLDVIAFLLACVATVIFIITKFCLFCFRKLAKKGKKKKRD

clinical = details: human, in vivo

fraction unbound ([1]; microsomes) | microsomal CLint ([2]; microsomes) | CL free [3] | CL [4] | CL free [5] | Drug metabolism [6] | bioavailability [7] | Papp [8] | blood plasma ratio (in vitro) | fraction unbound ([1]; intestinal microsomes) | microsomal CLint ([2]; intestinal microsomes) | Drug metabolism [9] | Drug metabolism [10] | Drug metabolism [11] | Drug metabolism [12] | clearance (clinical) | SMILES
0.97 | 17 µL/min/mg | 17.5 µL/min/mg | metabolite_not_detected | metabolite_not_detected | metabolite_detected | 100% | < 0.1 ×10⁻⁶ cm/s | 0.58 | – | – | – | – | – | – | – | Cc1ccc(C)c(OCCCC(C)(C)C(=O)O)c1 [GEMFIBROZIL]
– | – | 176 µL/min/mg | – | – | metabolite_detected | – | 14 ×10⁻⁶ cm/s | 0.66 | 0.88 | 155 µL/min/mg | metabolite_detected | metabolite_detected | metabolite_detected | metabolite_detected | 2.2 mL/min/kg | Cc1c(Cl)cccc1Nc1ccccc1C(=O)O [TOLFENAMIC ACID]
